Each block holds one compound with its values, some of them ahead of it.
Test: solvent given as SMILES
[1] = in O=P(c1ccccc1)(c1ccccc1)c1ccc2oc3ccc(P(=O)(c4ccccc4)c4ccccc4)cc3c2c1

Compound: CN(C)c1ccc2nc(/C=C/c3ccccc3)c(=O)oc2c1
fluorescence lifetime (in C1CCCCC1): 2.82 ns
fluorescence lifetime (in C1COCCO1): 3.52 ns
fluorescence lifetime (in CC#N): 3.95 ns
fluorescence lifetime (in CC(C)=O): 3.82 ns
fluorescence lifetime (in CCCCCCC): 2.8 ns
fluorescence lifetime (in CCO): 3.77 ns
fluorescence lifetime (in CCOC(C)=O): 3.58 ns
fluorescence lifetime (in CN(C)C=O): 3.65 ns
fluorescence lifetime (in CS(C)=O): 3.58 ns
fluorescence lifetime (in Cc1ccccc1): 3 ns
fluorescence lifetime (in ClC(Cl)Cl): 3.74 ns
fluorescence lifetime (in ClCCl): 3.83 ns

Compound: C#CCNC1=C2C(C)=CC(C)=[N+]2[B-](F)(F)n2c(C)cc(C)c21
fluorescence lifetime (in C1CCCCC1): 1.78 ns
fluorescence lifetime (in CC(C)=O): 0.61 ns
fluorescence lifetime (in CCOC(C)=O): 0.78 ns
fluorescence lifetime (in CO): 0.518 ns
fluorescence lifetime (in OCC(F)(F)F): 0.76 ns

Compound: Cc1ccc2c(c1)C1(c3ccccc3Oc3ccccc31)c1cc(C)ccc1N2c1ccc(-c2nc(-c3ccccc3)cc(-c3ccccc3)n2)cc1
fluorescence lifetime [1]: 11 ns

Compound: Cc1cc(C)c(B(c2ccc(C#Cc3cc4ccc5cc(C#Cc6ccc(B(c7c(C)cc(C)cc7C)c7c(C)cc(C)cc7C)cc6)cc6ccc(c3)c4c56)cc2)c2c(C)cc(C)cc2C)c(C)c1
fluorescence lifetime (in Cc1ccccc1): 58 ns

Compound: CC1(C)c2cc(C#N)ccc2-c2ccc(N3c4ccccc4Oc4ccccc43)cc21
fluorescence lifetime (in C1CCCCC1): 1.89 ns
fluorescence lifetime (in C1CCOC1): 9.74 ns
fluorescence lifetime (in CC#N): 1.23 ns
fluorescence lifetime (in Cc1ccccc1): 4.94 ns
fluorescence lifetime (in ClC(Cl)Cl): 11.6 ns

Compound: CCC(CC)COC1=CC2=C3c4cc(OCC(CC)CC)c(-c5cccs5)n4[B-](F)(F)[n+]4c3n(c3cc(C(C)(C)C)ccc34)[B-](F)(F)[N+]2=C1c1cccs1
fluorescence lifetime (in C1CCOC1): 0.5 ns
fluorescence lifetime (in ClCCl): 0.7 ns

Compound: N#CC1=c2c3cccc4c(Br)ccc(c43)n2[B-](F)(F)[n+]2ccccc21
fluorescence lifetime (in ClCCl): 7.8 ns

Compound: O=Cc1cc2c(cc3ccc4cccc5ccc2c3c45)[nH]1
fluorescence lifetime (in CCOC(C)=O): 2.55 ns

Compound: Cc1cccc(Nc2ccccc2C(=O)O)c1C
fluorescence lifetime (in C1CCCCC1): 2.7 ns
fluorescence lifetime (in C1CCOC1): 4.91 ns
fluorescence lifetime (in C1COCCO1): 2.38 ns
fluorescence lifetime (in CC#N): 0.558 ns
fluorescence lifetime (in CCOC(C)=O): 2.46 ns
fluorescence lifetime (in CN(C)C=O): 2.22 ns

Compound: C=Cc1ccc(OC)cc1
fluorescence lifetime (in C1CCCCC1): 6.6 ns
fluorescence lifetime (in CC#N): 6.3 ns

Compound: CN(C)c1ccc(C2=Nc3sc4c(F)c(F)c(F)c(F)c4[n+]3[B-](F)(F)O2)cc1
fluorescence lifetime (in Cc1ccccc1): 2 ns

Compound: CCCN1C(=O)C(=CC=CC=C2Oc3ccccc3N2CCCS(=O)(=O)[O-])C(=O)N(CCC)C1=S
fluorescence lifetime (in CC(C)=O): 0.854 ns
fluorescence lifetime (in CCCCO): 0.821 ns
fluorescence lifetime (in CCO): 0.465 ns
fluorescence lifetime (in CO): 0.288 ns
fluorescence lifetime (in ClC(Cl)Cl): 0.712 ns

Compound: Cc1cc(C)c(B(c2c(C)cc(C)cc2C)c2cc3cccc4c(B(c5c(C)cc(C)cc5C)c5c(C)cc(C)cc5C)cc5cccc2c5c34)c(C)c1
fluorescence lifetime (in CCCCCC): 5 ns

Compound: N#CCc1ccccc1-c1cc2ccccc2oc1=O
fluorescence lifetime (in ClC(Cl)Cl): 1.4 ns

Compound: O=[N+]([O-])c1ccc(F)cc1C1CC(c2cccc3ccccc23)=NN1c1ccccc1 (configuration not stated)
fluorescence lifetime (in C1CCCCC1): 3.08 ns
fluorescence lifetime (in C1CCOC1): 3.76 ns
fluorescence lifetime (in C1COCCO1): 3.77 ns
fluorescence lifetime (in CC#N): 3.81 ns
fluorescence lifetime (in CC(C)O): 2.85 ns
fluorescence lifetime (in CCOC(C)=O): 3.67 ns
fluorescence lifetime (in CCOCC): 3.53 ns
fluorescence lifetime (in CO): 2.86 ns
fluorescence lifetime (in Cc1ccccc1): 3.29 ns
fluorescence lifetime (in ClC(Cl)Cl): 3.68 ns
fluorescence lifetime (in O): 1.4 ns

Compound: CN(C)c1ccc(C2=Nc3sc4ccccc4[n+]3[B-](F)(F)O2)cc1
fluorescence lifetime (in Cc1ccccc1): 1.74 ns

Compound: Cc1ccc2c(c1)C1(c3ccccc3-c3ccccc31)c1cc(C)ccc1N2c1ccc(-c2ncccn2)cc1
fluorescence lifetime [1]: 13 ns

Second part, the compound after the results:

fluorescence lifetime (in c1cc(-n2c3ccccc3c3ccccc32)cc(-n2c3ccccc3c3ccccc32)c1): 134 ns
Compound: O=C(c1ccc(N2c3ccccc3[Si](c3ccccc3)(c3ccccc3)c3ccccc32)cc1)c1ccc(N2c3ccccc3[Si](c3ccccc3)(c3ccccc3)c3ccccc32)cc1

fluorescence lifetime (in CC#N): 3.03 ns
fluorescence lifetime (in ClCCl): 2.75 ns
Compound: CCN(CC)c1ccc(/N=N/c2nc3ccc(Br)cc3s2)cc1

fluorescence lifetime (in O): 11.5 ns
Compound: CCOC(=O)CCCCCn1c2ccc(N)cc2c(=O)c2cc(N)ccc21

fluorescence lifetime (in ClC(Cl)Cl): 6.91 ns
Compound: CCC[Si](CCC)(CCC)c1cc2ccc3cccc4ccc(c1C(=O)NC(C)(C)C)c2c34

fluorescence lifetime (in C1CCCCC1): 20 ns
Compound: Cc1ccc(-c2ccccc2)cc1

fluorescence lifetime (in CC#N): 0.0089 ns
Compound: Oc1ccccc1/C=N/c1ccccc1/N=C/c1ccccc1O

fluorescence lifetime (in CC#N): 0.0001 ns
Compound: Cc1cn(C(F)(F)F)c(=O)[nH]c1=O

fluorescence lifetime (in ClC(Cl)Cl): 1.69 ns
Compound: CC(C)(C)c1ccc(C2=c3sc(-c4ccc(C(C)(C)C)cc4)cc3=[N+]3C2=Nc2c(-c4ccc(C(C)(C)C)cc4)c4sc(-c5ccc(C(C)(C)C)cc5)cc4n2[B-]3(F)F)cc1

fluorescence lifetime (in O): 1.4 ns
Compound: Cc1ccc(N(CC(=O)[O-])CC(=O)[O-])cc1OCCOc1cc(-c2cc3ccc(C(=O)[O-])cc3[nH]2)ccc1N(CC(=O)[O-])CC(=O)[O-]

fluorescence lifetime (in ClCCl): 2.7 ns
Compound: CCN(CC)c1ccc2cc(C#N)c(=O)oc2c1

fluorescence lifetime (in CC#N): 2.67 ns
fluorescence lifetime (in CCOC(C)=O): 2.08 ns
fluorescence lifetime (in CO): 1.86 ns
Compound: COC(=O)C[C@H](Cc1c[nH]c2ccccc12)NC(=O)[C@H](CC(=O)N[C@@H](CC1=CCc2ccccc21)C(=O)OC)NC(=O)[C@H](Cc1c[nH]c2ccccc12)NC(=O)OC(C)(C)C

fluorescence lifetime (in CC1CCCCC1): 3.6 ns
Compound: CC(C)(C)c1ccc2cc3c4cccc5cccc(c6cc(C(C)(C)C)cc(c2c1)c63)c54
